Assay results reported in patent US10450300B2, “Wnt signaling pathway inhibitors and therapeutic applications thereof” (Suzhou Yunxuan Yiyao Keji Youxian Gongsi, priority 2015, dated 2019).

Test system: Wnt pathway
Assay: Wnt pathway Super-top flash (STF) reporter gene assay (primary assay)
Assay type: cell-based
Settings: HEK293 STF cells co-cultured 1:1 with L Wnt3A cells; 48 h incubation; inhibition of luminescence signaling
Experimental: The primary assay is based on Wnt pathway Super-top flash (STF) reporter gene assay:
HEK293 STF stable clones (HEK293 cells stably transfected with “Super-Top Flash” TCF-luciferase reporter plasmid) were kept in complete culture medium (DMEM with 4 mM L-Gln, 1.5 g/L sodium bicarbonate and 4.5 g/L glucose containing 6 μg/mL Blasticidin and 10% FBS). L Wnt3A cells (CRL-2647, ATCC) were kept in DMEM (Gibico) containing 10% FBS (Hyclone). HEK293 STF and L Wnt3A cells were harvested when 90% confluence and cell suspension was mixed with a fixed ratio of 1:1 (HEK293 STF: L Wnt3A). 100 μL/well of mixed cells suspension was added to the 96-well-plate with final cell concentration of 12,000 cells/well and then cultured for an additional 24 hours before adding compounds.
Compounds were diluted in DMSO in sequence and then diluted with DMEM medium. 20 μL medium containing compound was added to the cells according to the pre-setting dose. Cell plates were incubated at 37° C. for an additional 48 hours.
50 μL luciferase solution (Bright-Glo, Promega) was added to each well […] the 48 h incubation. The plates were incubated at room temperature for 5 min under gentle shaking. Luminescence signaling was measured with a plate reader (PHERAstar FS, BMG). The IC50 (potency) of compounds was calculated based on the inhibition of luminescence signaling.

For Cc1cc(-c2ccc(CNc3ncnc(-c4ccc5ccccc5c4)c3F)cc2)ccn1 [Compound A-1, 5-fluoro-N-(4-(2-methylpyridin-4-yl)benzyl)-6-(naphthalen-2-yl)pyrimidin-4-amine], the IC50 was 1.4 nM.
For Cc1cc(-c2ccc(CNc3ncnc(-c4cnc5ccccc5c4)c3F)cc2)ccn1 [Compound A-2], the IC50 was 2.9 nM.
Compound Cc1cc(-c2ccc(CNc3ncnc(-c4ccc5cccnc5c4)c3F)cc2)ccn1 [Compound A-3] has an IC50 of 36 nM.
Cc1cc(-c2ccc(CNc3ncnc(-c4ccc5ncccc5c4)c3F)cc2)ccn1 [Compound A-4] gave an IC50 of 0.3 nM.
Cc1cc(-c2ccc(CNc3ncnc(-c4ccc5nc(C)ccc5c4)c3F)cc2)ccn1 [Compound A-5] gave an IC50 of 2.1 nM.
Cc1cc(-c2ccc(CNc3ncnc(-c4ccc5cnccc5c4)c3F)cc2)ccn1 [Compound A-6] was tested, and the IC50 was 4.7 nM.
Cc1cc(-c2ccc(CNc3ncnc(-c4ccc5ccncc5c4)c3F)cc2)ccn1 [Compound A-7] gave an IC50 of 7.4 nM.
Cc1cc(-c2ccc(CNc3ncnc(-c4ccc5nccnc5c4)c3F)cc2)ccn1 [Compound A-8] gave an IC50 of 1.5 nM.
Cc1cc(-c2ccc(CNc3ncnc(-c4ccc5ncncc5c4)c3F)cc2)ccn1 [Compound A-9] gave an IC50 of 2.8 nM.
Work on Cc1cc(-c2ccc(CNc3ncnc(-c4ccc5[nH]cnc5c4)c3F)cc2)ccn1 [Compound A-10] yielded an IC50 of 285 nM.
Cc1cc(-c2ccc(CNc3ncnc(-c4ccc5nccn5c4)c3F)cc2)ccn1 [Compound A-11] showed an IC50 of 1.6 nM.
Cc1cc(-c2ccc(CNc3ncnc(-c4ccc5ncsc5c4)c3F)cc2)ccn1 [Compound A-12] gave an IC50 of 0.3 nM.
For Cc1cc(-c2ccc(CNc3ncnc(-c4ccc5[nH]ncc5c4)c3F)cc2)ccn1 [Compound A-13], the IC50 was 99 nM.
In the case of Cc1cc(-c2ccc(CNc3ncnc(-c4ccc5nn(C)cc5c4)c3F)cc2)ccn1 [Compound A-14], the IC50 is reported as 5.9 nM.
For Cc1cc(-c2ccc(CNc3ncnc(-c4ccc5c(cnn5C)c4)c3F)cc2)ccn1 [Compound A-15], the IC50 was 19 nM.
Work on Cc1cc(-c2ccc(CNc3ncnc(-c4ccc5c(c4)OCCO5)c3F)cc2)ccn1 [Compound A-16] yielded an IC50 of 27 nM.
For Cc1cc(-c2ccc(CNc3ncnc(-c4ccccc4)c3F)cc2)ccn1 [Compound A-17], the IC50 was over 1000 nM.
Cc1cc(-c2ccc(CNc3ncnc(-c4ccccc4Cl)c3F)cc2)ccn1 [Compound A-18] was tested, and the IC50 was 480 nM.
For Cc1cc(-c2ccc(CNc3ncnc(-c4cccc(Cl)c4)c3F)cc2)ccn1 [Compound A-19], the IC50 was 14 nM.
With Cc1cc(-c2ccc(CNc3ncnc(-c4ccc(Cl)cc4)c3F)cc2)ccn1 [Compound A-20] the IC50 was 211 nM.
Compound Cc1cc(-c2ccc(CNc3ncnc(-c4ccc(Cl)c(Cl)c4)c3F)cc2)ccn1 [Compound A-21] has an IC50 of 14 nM.
Work on Cc1cc(-c2ccc(CNc3ncnc(N4CCc5ccccc5C4)c3F)cc2)ccn1 [Compound A-22] yielded an IC50 of 14 nM.
Work on Cc1cc(-c2ccc(CNc3ncnc(N4CCc5ccc(F)cc5C4)c3F)cc2)ccn1 [Compound A-23] yielded an IC50 of 15 nM.
In the case of Cc1cc(-c2ccc(CNc3ncnc(N4CCc5c(F)cccc5C4)c3F)cc2)ccn1 [Compound A-24], the IC50 is reported as 37 nM.
Cc1cc(-c2ccc(CNc3ncnc(N4CCc5c(Br)cccc5C4)c3F)cc2)ccn1 [Compound A-25] gave an IC50 of over 1000 nM.
Compound Cc1cc(-c2ccc(CNc3ncnc(N4CCc5ncccc5C4)c3F)cc2)ccn1 [Compound A-26] has an IC50 of 1.5 nM.
Cc1cc(-c2ccc(CN(C)c3ncnc(-c4ccc5ccccc5c4)c3F)cc2)ccn1 [Compound A-27, 5-fluoro-N-methyl-N-(4-(2-methylpyridin-4-yl)benzyl)-6-(naphthalen-2-yl)pyrimidin-4-amine] was tested, and the IC50 was 937 nM.
Work on Cc1cc(-c2ccc(C(C)Nc3ncnc(-c4ccc5ccccc5c4)c3F)cc2)ccn1 (stereo not shown) [Compound A-28] yielded an IC50 of 17 nM.
Cc1cc(-c2ccc(CNc3ncnc(-c4ccc5ccccc5c4)c3F)s2)ccn1 [Compound A-29] was tested, and the IC50 was 577 nM.
For Cc1cc(-c2ccc(CNc3ncnc(-c4ccc5ccccc5c4)c3F)cn2)ccn1 [Compound A-30], the IC50 was 23 nM.
For Cc1cc(-c2ccc(CNc3ncnc(-c4ccc5ncccc5c4)c3F)cn2)ccn1 [Compound A-31], the IC50 was 1 nM.
In the case of Cc1cc(-c2ccc(CNc3ncnc(N4CCc5ncccc5C4)c3F)cn2)ccn1 [Compound A-32], the IC50 is reported as 2 nM.
With Cc1cc(-c2ncc(CNc3ncnc(-c4ccc5ccccc5c4)c3F)cc2C)ccn1 [Compound A-33] the IC50 was 1.4 nM.
With Cc1cc(-c2ncc(CNc3ncnc(-c4ccc5ncccc5c4)c3F)cc2C)ccn1 [Compound A-34] the IC50 was 3 nM.
For Cc1cc(-c2ncc(CNc3ncnc(-c4ccc5ccccc5c4)c3F)cc2F)ccn1 [Compound A-35], the IC50 was 4 nM.
With Cc1cc(-c2ncc(CNc3ncnc(-c4ccc5ncccc5c4)c3F)cc2F)ccn1 [Compound A-36] the IC50 was 0.5 nM.
Work on Cc1cc(-c2ccc(CNc3ncnc(-c4ccc5ccccc5c4)c3F)nc2)ccn1 [Compound A-37] yielded an IC50 of 2.4 nM.
Fc1c(NCc2ccc(-c3ccncc3)cc2)ncnc1-c1ccc2ccccc2c1 [Compound A-38] gave an IC50 of 5 nM.
Cn1nccc1-c1ccc(CNc2ncnc(-c3ccc4ccccc4c3)c2F)cc1 [Compound A-39] showed an IC50 of 129 nM.
In the case of Fc1c(NCc2ccc(-n3ccnc3)cc2)ncnc1-c1ccc2ccccc2c1 [Compound A-40], the IC50 is reported as over 1000 nM.
Fc1c(NCc2ccc3cnccc3c2)ncnc1-c1ccc2ncccc2c1 [Compound A-41] showed an IC50 of 55 nM.
In the case of N#Cc1ccc2cc(CNc3ncnc(-c4ccc5ncccc5c4)c3F)ccc2c1 [Compound A-42, 6-((5-fluoro-6-(quinolin-6-yl)pyrimidin-4-ylamino)methyl)-2-naphthonitrile], the IC50 is reported as 0.7 nM.
Work on NC(=O)c1ccc2cc(CNc3ncnc(-c4ccc5ncccc5c4)c3F)ccc2c1 [Compound A-43, 6-((5-fluoro-6-(quinolin-6-yl)pyrimidin-4-ylamino)methyl)-2-naphthamide] yielded an IC50 of 75 nM.
N#Cc1ccc2cc(CNc3ncnc(N4CCc5ncccc5C4)c3F)ccc2c1 [Compound A-44] gave an IC50 of 1 nM.
With Cc1cc(-c2ncc(CNc3ncnc(N4CCc5ncccc5C4)c3F)cc2F)ccn1 [Compound A-45] the IC50 was 0.4 nM.
Work on Cc1cc(-c2ncc(CNc3ncnc(N4CCc5ncccc5C4)c3F)cc2C)ccn1 [Compound A-46] yielded an IC50 of 4.9 nM.
Cc1cc(-c2ccc(CNc3ncnc(N4CCc5ncsc5C4)c3F)cc2)ccn1 [Compound A-47] gave an IC50 of 0.94 nM.
Work on Cc1cc(-c2ncc(CNc3ncnc(-c4ccc5ncsc5c4)c3F)cc2F)ccn1 [Compound A-49] yielded an IC50 of 0.39 nM.
Cc1cc(-c2ccc(CNc3ncnc(-c4ccc5ncsc5c4)c3F)cn2)ccn1 [Compound A-50] showed an IC50 of 1 nM.
For Cc1cc(-c2ncc(CNc3ncnc(-c4ccc5ncsc5c4)c3F)cc2C)ccn1 [Compound A-51], the IC50 was 1 nM.
Cc1cc(-c2ccc(CNc3ncnc(N4Cc5ccccc5C4)c3F)cc2)ccn1 [Compound A-52] gave an IC50 of 17 nM.
Compound Cc1cc(-c2ccc(CNc3ncnc(N4CCc5c(C#N)cccc5C4)c3F)cc2)ccn1 [Compound A-53] has an IC50 of 89 nM.
Cc1cc(-c2ncc(CNc3ncnc(N4CCc5ncsc5C4)c3F)cc2F)ccn1 [Compound A-54] showed an IC50 of 0.67 nM.
Work on Cc1cc(-c2ccc(CNc3ncnc(-c4ccc5nncn5c4)c3F)cc2)ccn1 [Compound A-55] yielded an IC50 of 3000 nM.
Cc1cc(-c2ncc(CNc3ncnc(N4CCc5ncccc5C4)c3F)cc2C#N)ccn1 [Compound A-56] was tested, and the IC50 was 1 nM.
With Cc1cc(-c2ncc(CNc3ncnc(-c4ccc5ncccc5c4)c3F)cc2C#N)ccn1 [Compound A-57] the IC50 was 0.39 nM.
Cc1cc(-c2ncc(CNc3ncnc(N4CCn5ncnc5C4)c3F)cc2F)ccn1 [Compound A-58] showed an IC50 of 34 nM.
Cc1cc(-c2ccc(CNc3ncnc(N4CCn5c(nnc5C(F)(F)F)C4)c3F)cc2)ccn1 [Compound A-59] gave an IC50 of 230 nM.
Cc1cc(-c2ncc(CNc3ncnc(-c4ccc5ncccc5c4)c3F)cn2)ccn1 [Compound A-60] was tested, and the IC50 was 0.81 nM.
Compound Cc1cc(-c2ncc(CNc3ncnc(N4CCc5ncccc5C4)c3F)cn2)ccn1 [Compound A-61, 6-(7,8-dihydro-1,6-naphthyridin-6(5H)-yl)-5-fluoro-N-((2-(2-methylpyridin-4-yl)pyrimidin-5-yl)methyl)pyrimidin-4-amine] has an IC50 of 1.3 nM.
Compound Cc1cc(-c2ncc(CNc3ncnc(N4CCc5ncncc5C4)c3F)cc2F)ccn1 [Compound A-62] has an IC50 of 6.2 nM.
In the case of Cc1cc(-c2cnc(CNc3ncnc(-c4ccc5ncccc5c4)c3F)cn2)ccn1 [Compound A-63], the IC50 is reported as 2 nM.
With Cc1cc(-c2ccc(CNc3ncnc(-c4ccc5ncccc5c4)c3F)cc2)cc[n+]1[O-] [Compound A-64, 4-(4-((5-fluoro-6-(quinolin-6-yl)pyrimidin-4-ylamino)methyl)phenyl)-2-methylpyridine 1-oxide] the IC50 was 16 nM.
For COc1cc(CNc2ncnc(-c3ccc4ncccc4c3)c2F)cnc1-c1ccnc(C)c1 [Compound A-65], the IC50 was 0.44 nM.
Work on Fc1c(NCc2ccc(-c3ccnnc3)cc2)ncnc1-c1ccc2ncccc2c1 [Compound A-67] yielded an IC50 of 10 nM.
In the case of O=S1(=O)CCN(c2ccc(CNc3ncnc(-c4ccc5ncccc5c4)c3F)cn2)CC1 [Compound A-68], the IC50 is reported as 16 nM.
With Cc1cc(-c2ncc(CNc3ncnc(C#Cc4cccnc4)c3F)cc2F)ccn1 [Compound A-69, 5-fluoro-N-((3-fluoro-2′-methyl-2,4′-bipyridin-5-yl)methyl)-6-(pyridin-3-ylethynyl)pyrimidin-4-amine] the IC50 was 73 nM.
